Experimental data as given in article PMC11670956, “A cell-based Papain-like Protease (PLpro) activity assay for rapid detection of active SARS-CoV-2 infections and antivirals” (PLOS ONE, 2024).

Biological target: T1, SARS-CoV-2 Papain-like protease (PLpro) (Severe acute respiratory syndrome coronavirus 2, UniProt P0DTD1)
T1 construct: gene rep; natural full-length PLpro (nsp3) made in infected VeroE6 cells, crude lysate; mature chain nsp3 of replicase polyprotein 1a / 1ab
Assay: fluorogenic Pun74-R110 peptide cleavage in lysates of infected, inhibitor-pretreated VeroE6 cells
Assay type: biochemical
Settings: unreliable (tentative; one experiment in duplicate); inhibitor given to live cells 2 h before infection (0.01 MOI, 24 h, 37 °C); PLpro read in lysate with 50 nM Pun74-R110, 5 mM DTT, pH 7.4, room temp

For `Cc1ccc(N)cc1C(=O)N[C@H](C)c1cccc2ccccc12` [GRL0617], the IC50 was 38.3 µM.
